Assay results taken from patent US11661426B2, “Imidazole-containing inhibitors of ALK2 kinase” (BioCryst Pharmaceuticals, Inc., priority 2017, dated 2023).

Molecular target: ALK2 (Homo sapiens (Human), UniProt Q04771)
Test: ALK2 inhibition, LanthaScreen Eu Kinase Binding Assay (ThermoFisher Scientific / Life Technologies)
Conditions: read-out: Measured Ki (IC50) Value for Compounds: IC50
Method: Biochemical assays to measure the inhibitory effects of the compounds were performed by ThermoFisher Scientific (Life Technologies). ALK2 inhibition was tested using LanthaScreen™ Eu Kinase Binding Assay screening protocol.

Chain of ALK2 (Q04771 21-509): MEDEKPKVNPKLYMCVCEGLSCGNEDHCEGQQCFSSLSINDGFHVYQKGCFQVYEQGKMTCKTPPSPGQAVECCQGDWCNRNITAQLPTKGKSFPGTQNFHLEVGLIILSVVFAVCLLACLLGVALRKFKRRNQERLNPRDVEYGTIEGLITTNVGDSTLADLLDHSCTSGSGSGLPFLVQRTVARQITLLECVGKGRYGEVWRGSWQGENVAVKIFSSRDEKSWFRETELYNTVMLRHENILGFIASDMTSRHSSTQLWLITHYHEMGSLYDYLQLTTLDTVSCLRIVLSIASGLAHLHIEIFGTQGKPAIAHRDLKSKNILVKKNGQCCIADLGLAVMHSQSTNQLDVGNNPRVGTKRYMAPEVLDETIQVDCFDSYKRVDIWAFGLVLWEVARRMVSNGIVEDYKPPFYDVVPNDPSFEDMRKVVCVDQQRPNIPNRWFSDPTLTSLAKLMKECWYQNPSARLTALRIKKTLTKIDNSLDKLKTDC

SMILES	IC50
OC[C@@H]1CCCN1c1cc(Cl)c2ccccc2n1 [Compound 367b, (S)-(1-(4-chloroquinolin-2-yl)pyrrolidin-2-yl)methanol]	> 1 µM
OC[C@@H]1CCCN1c1nc(Nc2cn(-c3cn(C4CCCC4)cn3)cn2)c2cccn2n1 [Compound 451d, (S)-(1-(4-((1′-cyclopentyl-1′H-[1,4′-biimidazol]-4-yl)amino)pyrrolo[2,1-f][1,2,4]triazin-2-yl)pyrrolidin-2-yl)methanol]	0.1 to 1 µM
COc1cc(-n2cnc(Nc3nc(N4CCC[C@H]4CO)c4c(C)nn(C5CCOCC5)c4n3)c2)cc(OC)c1OC [Compound 454c, (S)-(1-(3-methyl-1-(tetrahydro-2H-pyran-4-yl)-6-((1-(3,4,5-trimethoxyphenyl)-1H-imidazol-4-yl)amino)-1H-pyrazolo[3,4-d]pyrimidin-4-yl)pyrrolidin-2-yl)methanol]	< 0.1 µM
c1ccc([C@@H]2CCCN2c2nc(Nc3cn(C4CCC4)cn3)c3cccn3n2)cc1 [Compound 63a, (S)—N-(1-cyclobutyl-1H-imidazol-4-yl)-2-(2-phenylpyrrolidin-1-yl)pyrrolo[2,1-f][1,2,4]triazin-4-amine]	< 0.1 µM
CC(C)(C)OC(=O)N1CCN(c2nc(Nc3cn(-c4ccccc4)cn3)c3sccc3n2)CC1 [Compound 54a, tert-butyl 4-(4-((1-phenyl-1H-imidazol-4-yl)amino)thieno[3,2-d]pyrimidin-2-yl)piperazine-1-carboxylate]	< 0.1 µM
COc1cc(-n2cnc(Nc3nc4c(c(N5CCC[C@H]5CO)n3)CCN(Cc3ccc(C#N)cc3)C4)c2)cc(OC)c1OC [Compound 219a, (S)-4-((4-(2-(hydroxymethyl)pyrrolidin-1-yl)-2-((1-(3,4,5-trimethoxyphenyl)-1H-imidazol-4-yl)amino)-5,6-dihydropyrido[3,4-d]pyrimidin-7(8H)-yl)methyl)benzonitrile]	< 0.1 µM
Cc1csc2c(Nc3cn(-c4ccccc4)cn3)nc(N3CCC[C@H]3CO)nc12 [Compound 41c, (S)-(1-(7-methyl-4-((1-phenyl-1H-imidazol-4-yl)amino)thieno[3,2-d]pyrimidin-2-yl)pyrrolidin-2-yl)methanol]	< 0.1 µM
N#Cc1cc(O)cc(-n2cnc(Nc3nc(N4CCC[C@H]4CO)nn4cccc34)c2)c1 [Compound 127b, (S)-3-hydroxy-5-(4-((2-(2-(hydroxymethyl)pyrrolidin-1-yl)pyrrolo[2,1-f][1,2,4]triazin-4-yl)amino)-1H-imidazol-1-yl)benzonitrile]	< 0.1 µM
COc1cc(-n2cnc(Nc3nc4c(c(N5CCC[C@H]5CO)n3)CCN(Cc3cccnc3)C4)c2)cc(OC)c1OC [Compound 216a, (S)-(1-(7-(pyridin-3-ylmethyl)-2-((1-(3,4,5-trimethoxyphenyl)-1H-imidazol-4-yl)amino)-5,6,7,8-tetrahydropyrido[3,4-d]pyrimidin-4-yl)pyrrolidin-2-yl)methanol]	< 0.1 µM
NC(=O)[C@@H]1CCCN1c1nc(Nc2cn(-c3ccc4c(c3)OCO4)cn2)c2ccsc2n1 [Compound 429a, (S)-1-(4-((1-(benzo[d][1,3]dioxol-5-yl)-1H-imidazol-4-yl)amino)thieno[2,3-d]pyrimidin-2-yl)pyrrolidine-2-carboxamide]	0.1 to 1 µM
O=C1OCc2ccc(-n3cnc(Nc4nc(N5CCC[C@H]5CO)nn5cccc45)c3)cc21 [Compound 469g, (S)-6-(4-((2-(2-(hydroxymethyl)pyrrolidin-1-yl)pyrrolo[2,1-f][1,2,4]triazin-4-yl)amino)-1H-imidazol-1-yl)isobenzofuran-1(3H)-one]	0.1 to 1 µM
COc1cc(-c2ccc(Nc3nc(N4CCC[C@H]4CO)nc4ccccc34)nc2)cc(OC)c1OC [Compound 370b, (S)-(1-(4-((5-(3,4,5-trimethoxyphenyl)pyridin-2-yl)amino)quinazolin-2-yl)pyrrolidin-2-yl)methanol]	> 1 µM
COc1cc(-n2cnc(Nc3nc(N4CCC[C@H]4C(N)=O)c4ccn(S(=O)(=O)c5ccc(C)cc5)c4n3)c2)cc(OC)c1OC [Compound 173b, (S)-1-(7-tosyl-2-((1-(3,4,5-trimethoxyphenyl)-1H-imidazol-4-yl)amino)-7H-pyrrolo[2,3-d]pyrimidin-4-yl)pyrrolidine-2-carboxamide]	> 1 µM
OCc1cccc(-n2cnc(Nc3nc(N4CCC[C@H]4CO)nn4cccc34)c2)c1 [Compound 434e, (S)-(1-(4-((1-(3-(hydroxymethyl)phenyl)-1H-imidazol-4-yl)amino)pyrrolo[2,1-f][1,2,4]triazin-2-yl)pyrrolidin-2-yl)methanol]	< 0.1 µM
COc1cc(-n2cnc(Nc3nc4c(c(N5CCC[C@H]5CO)n3)CCN(Cc3ccccc3)C4)c2)cc(OC)c1OC [Compound 165b, (S)-(1-(7-benzyl-2-((1-(3,4,5-trimethoxyphenyl)-1H-imidazol-4-yl)amino)-5,6,7,8-tetrahydropyrido[3,4-d]pyrimidin-4-yl)pyrrolidin-2-yl)methanol]	< 0.1 µM
Cc1cc2nc(N3CCC[C@H]3CO)nc(Nc3cn(-c4ccccc4)cn3)c2s1 [Compound 23c, (S)-(1-(6-methyl-4-((1-phenyl-1H-imidazol-4-yl)amino)thieno[3,2-d]pyrimidin-2-yl)pyrrolidin-2-yl)methanol]	< 0.1 µM

Second part, the molecule after the results:

IC50	SMILES
< 0.1 µM	COc1cc(-n2cnc(Nc3nc(N4CCC[C@H]4CO)nc4c3CCCC4)c2)cc(OC)c1OC [Compound 296a, (S)-(1-(4-((1-(3,4,5-trimethoxyphenyl)-1H-imidazol-4-yl)amino)-5,6,7,8-tetrahydroquinazolin-2-yl)pyrrolidin-2-yl)methanol]
< 0.1 µM	COc1cc(-n2cnc(Nc3nc(N4CCC[C@H]4CO)nc4cc(C#N)ccc34)c2)cc(OC)c1OC [Compound 347a, (S)-2-(2-(hydroxymethyl)pyrrolidin-1-yl)-4-((1-(3,4,5-trimethoxyphenyl)-1H-imidazol-4-yl)amino)quinazoline-7-carbonitrile]
< 0.1 µM	COc1cc(-n2cnc(Nc3nc(N4CCC[C@@H]4C(N)=O)nc4[nH]ccc34)c2)cc(OC)c1OC [Compound 314b, (R)-1-(4-((1-(3,4,5-trimethoxyphenyl)-1H-imidazol-4-yl)amino)-7H-pyrrolo[2,3-d]pyrimidin-2-yl)pyrrolidine-2-carboxamide]
< 0.1 µM	COc1cc(-n2cnc(Nc3nc(-c4cccc(C(N)=O)c4)nc4sccc34)c2)cc(OC)c1OC [Compound 146a, 3-(4-((1-(3,4,5-trimethoxyphenyl)-1H-imidazol-4-yl)amino)thieno[2,3-d]pyrimidin-2-yl)benzamide]
< 0.1 µM	COc1cc(-n2cnc(Nc3nc(N4CCC[C@H]4C(=O)NCC4CC4)nc4ccoc34)c2)cc(OC)c1OC [Compound 248a, (S)—N-(cyclopropylmethyl)-1-(4-((1-(3,4,5-trimethoxyphenyl)-1H-imidazol-4-yl)amino)furo[3,2-d]pyrimidin-2-yl)pyrrolidine-2-carboxamide]
< 0.1 µM	COc1cc(-n2cnc(Nc3nc(N4CCC[C@H]4C(N)=O)nc4sc(CN5CCN(c6ccccn6)CC5)cc34)c2)cc(OC)c1OC [Compound 408b, (S)-1-(6-((4-(pyridin-2-yl)piperazin-1-yl)methyl)-4-((1-(3,4,5-trimethoxyphenyl)-1H-imidazol-4-yl)amino)thieno[2,3-d]pyrimidin-2-yl)pyrrolidine-2-carboxamide]
> 1 µM	COc1cc(-n2cnc(Nc3nc(N4CCC[C@H]4C(N)=O)c4cccn4n3)c2)cc(OC)c1OC [Compound 147b, (S)-1-(2-((1-(3,4,5-trimethoxyphenyl)-1H-imidazol-4-yl)amino)pyrrolo[2,1-f][1,2,4]triazin-4-yl)pyrrolidine-2-carboxamide]
< 0.1 µM	COc1cc(-n2cnc(Nc3nc(N4CCC[C@H]4C(N)=O)nc4sc(CN5CCOCC5)cc34)c2)cc(OC)c1OC [Compound 407b, (S)-1-(6-(morpholinomethyl)-4-((1-(3,4,5-trimethoxyphenyl)-1H-imidazol-4-yl)amino)thieno[2,3-d]pyrimidin-2-yl)pyrrolidine-2-carboxamide]
< 0.1 µM	COc1cc(-n2cnc(Nc3nc(N4CC[C@H](N(C)C)C4)nc4ccoc34)c2)cc(OC)c1OC [Compound 261a, (S)-2-(3-(dimethylamino)pyrrolidin-1-yl)-N-(1-(3,4,5-trimethoxyphenyl)-1H-imidazol-4-yl)furo[3,2-d]pyrimidin-4-amine]
< 0.1 µM	COc1cc(-n2cnc(Nc3nc(N4CCC[C@H]4C(N)=O)nc4cc(F)ccc34)c2)cc(OC)c1OC [Compound 266c, (S)-1-(7-fluoro-4-((1-(3,4,5-trimethoxyphenyl)-1H-imidazol-4-yl)amino)quinazolin-2-yl)pyrrolidine-2-carboxamide]
< 0.1 µM	COc1cc(-n2cnc(Nc3nc(N4CCC[C@H]4CO)nc4c3CN(C(C)C)C4=O)c2)cc(OC)c1OC [Compound 274c, (S)-2-(2-(hydroxymethyl)pyrrolidin-1-yl)-6-isopropyl-4-((1-(3,4,5-trimethoxyphenyl)-1H-imidazol-4-yl)amino)-5H-pyrrolo[3,4-d]pyrimidin-7(6H)-one]
< 0.1 µM	COc1cc(-n2cnc(Nc3nc(N4CC[C@H](O)C4)c4cccn4n3)c2)cc(OC)c1OC [Compound 211b, (S)-1-(2-((1-(3,4,5-trimethoxyphenyl)-1H-imidazol-4-yl)amino)pyrrolo[2,1-f][1,2,4]triazin-4-yl)pyrrolidin-3-ol]
< 0.1 µM	COc1cc(-n2cnc(Nc3nc(N4CCC[C@@H]4CO)nc4c3COC4)c2)cc(OC)c1OC [Compound 282a, (R)-(1-(4-((1-(3,4,5-trimethoxyphenyl)-1H-imidazol-4-yl)amino)-5,7-dihydrofuro[3,4-d]pyrimidin-2-yl)pyrrolidin-2-yl)methanol]
< 0.1 µM	COc1cc(-n2cnc(Nc3nc(N4CCC[C@H]4C(N)=O)nn4cccc34)c2)cc(OC)c1OC [Compound 91a, (S)-1-(4-(1-(3,4,5-trimethoxyphenyl)-1H-imidazol-4-ylamino)pyrrolo[1,2-f][1,2,4]triazin-2-yl)pyrrolidine-2-carboxamide]
< 0.1 µM	COc1cc(-n2cnc(Nc3nc(N4CC[C@@H](CO)C4)nc4ccoc34)c2)cc(OC)c1OC [Compound 246a, (R)-(1-(4-((1-(3,4,5-trimethoxyphenyl)-1H-imidazol-4-yl)amino)furo[3,2-d]pyrimidin-2-yl)pyrrolidin-3-yl)methanol]
